The values below come from PubChem BioAssay AID256 (DTP/NCI, 2004).

The test system of this experiment is CD2F1 mice, L1210 leukemia ip, survival T/C. The experiment can be described thus: NCI In Vivo Anticancer Drug Screen. Data for tumor model L1210 Leukemia (intraperitoneal) in CD2F1 (CDF1) mice. The conditions noted are these: higher = longer survival. The procedure, abridged: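 Transplantable tumor in mice; compound-treated vs vehicle-treated groups. Read-out = treated/control ratio of the measured endpoint.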

Where [1] appears, read: endpoint: mean survival time, dose: 25.0 mg/kg/injection, schedule: Q01DX009 (ip), vehicle: saline with Tween-80.
Where [2] appears, read: endpoint: mean survival time, dose: 50.0 mg/kg/injection, schedule: Q01DX009 (ip), vehicle: saline with Tween-80.
The mark [3] stands for this setting: endpoint: mean survival time, dose: 100.0 mg/kg/injection, schedule: Q01DX009 (ip), vehicle: saline with Tween-80.
[4] abbreviates: endpoint: mean survival time, dose: 100.0 mg/kg/injection, schedule: Q04DX003 (ip), vehicle: saline with Tween-80.
Setting [5] is: endpoint: mean survival time, dose: 200.0 mg/kg/injection, schedule: Q01DX009 (ip), vehicle: saline with Tween-80.
[6] abbreviates: endpoint: mean survival time, dose: 200.0 mg/kg/injection, schedule: Q04DX003 (ip), vehicle: saline with Tween-80.

Where “and” joins values, the source holds several entries; their conditions need not be identical. Equal entries are not always repeated. Inconclusive results and toxic doses are left out.

Consider `O=C(O)/C=C/C(=O)Nc1cccc2c1C(=O)c1ccccc1-2`, for which the T/C by setting is: under setting [1], 97 % of control; under setting [2], 94 % of control; under setting [3], 102 % of control.
Turning to `Nc1cccc(OCc2ccc([N+](=O)[O-])cc2)c1`, the T/C was 86 % of control (endpoint: mean survival time, dose: 100.0 mg/kg/injection, schedule: Q04DX002 (ip), vehicle: Klucel (hydroxypropylcellulose) (HPC)); 107 % of control (endpoint: mean survival time, dose: 200.0 mg/kg/injection, schedule: Q04DX002 (ip), vehicle: Klucel (hydroxypropylcellulose) (HPC)); 95 % of control (endpoint: mean survival time, dose: 400.0 mg/kg/injection, schedule: Q04DX002 (ip), vehicle: Klucel (hydroxypropylcellulose) (HPC)).
Turning to `Cc1ccccc1C1(O)CCCCC1`, the T/C was 114 % of control under setting [1]; 98 % of control and 108 % of control under setting [2]; 90 % of control under setting [3]; 93 % of control under setting [4]; 90 % of control under setting [5]; 94 % of control under setting [6].
With `Nc1ccc(S(=O)(=O)O)cc1[N+](=O)[O-]`, the T/C was 92 % of control (endpoint: mean survival time, dose: 100.0 mg/kg/injection, schedule: Q01DX009 (ip), vehicle: saline); 97 % of control (endpoint: mean survival time, dose: 200.0 mg/kg/injection, schedule: Q01DX009 (ip), vehicle: saline); 101 % of control (endpoint: mean survival time, dose: 400.0 mg/kg/injection, schedule: Q01DX009 (ip), vehicle: saline).
As for `CCC(C)C(C(=O)OCC[N+](C)(CC)CC)c1ccc(C)c(C)c1` (stereo not given), the T/C by setting is: (endpoint: mean survival time, dose: 12.5 mg/kg/injection, schedule: Q04DX003 (ip), vehicle: saline) 93 % of control; (endpoint: mean survival time, dose: 25.0 mg/kg/injection, schedule: Q04DX003 (ip), vehicle: saline) 101 % of control; (endpoint: mean survival time, dose: 50.0 mg/kg/injection, schedule: Q04DX003 (ip), vehicle: saline) 97 % of control.
On to `CN(CCl)S(=O)(=O)c1ccccc1`, for which the T/C was 100 % of control under setting [3]; 112 % of control under setting [4]; 104 % of control under setting [5]; 101 % of control under setting [6]; 102 % of control (endpoint: mean survival time, dose: 400.0 mg/kg/injection, schedule: Q01DX009 (ip), vehicle: saline with Tween-80); 100 % of control (endpoint: mean survival time, dose: 400.0 mg/kg/injection, schedule: Q04DX003 (ip), vehicle: saline with Tween-80).
As to `CCOC1OC(C(O)CO)C(O)C(O)C1O` (stereo not given), the T/C is 101 % of control (endpoint: mean survival time, dose: 100.0 mg/kg/injection, schedule: Q04DX003 (ip), vehicle: saline); 103 % of control (endpoint: mean survival time, dose: 200.0 mg/kg/injection, schedule: Q04DX003 (ip), vehicle: saline); 101 % of control (endpoint: mean survival time, dose: 400.0 mg/kg/injection, schedule: Q04DX003 (ip), vehicle: saline).
For the molecule `CC(C)=CCC(OC(=O)C=C(C)C)c1cc(O)c2c(O)ccc(O)c2c1O.[Pt]` (stereo not given), the T/C runs as follows: (endpoint: mean survival time, dose: 1.56 mg/kg/injection, schedule: Q04DX003 (ip), vehicle: distilled water + Tween-80) 104 % of control; (endpoint: mean survival time, dose: 3.12 mg/kg/injection, schedule: Q04DX003 (ip), vehicle: distilled water + Tween-80) 104 % of control; (endpoint: mean survival time, dose: 6.25 mg/kg/injection, schedule: Q04DX003 (ip), vehicle: distilled water + Tween-80) 101 % of control; (endpoint: mean survival time, dose: 12.5 mg/kg/injection, schedule: Q04DX003 (ip), vehicle: distilled water + Tween-80) 101 % of control; (endpoint: mean survival time, dose: 25.0 mg/kg/injection, schedule: Q04DX003 (ip), vehicle: distilled water + Tween-80) 95 % of control; (endpoint: mean survival time, dose: 50.0 mg/kg/injection, schedule: Q04DX003 (ip), vehicle: distilled water + Tween-80) 89 % of control. Besides, the T/C (endpoint: mean survival time, dose: 100.0 mg/kg/injection, schedule: Q04DX003 (ip), vehicle: distilled water + Tween-80) is 92 % of control.
On to `CCc1nc2cc(C)c(C)cc2[nH]1`, for which the T/C was 97 % of control (endpoint: mean survival time, dose: 12.5 mg/kg/injection, schedule: Q01DX009 (ip), vehicle: saline with Tween-80); 100 % of control under setting [1]; 89 % of control (endpoint: mean survival time, dose: 25.0 mg/kg/injection, schedule: Q04DX003 (ip), vehicle: saline with Tween-80); 95 % of control under setting [2]; 89 % of control (endpoint: mean survival time, dose: 50.0 mg/kg/injection, schedule: Q04DX003 (ip), vehicle: saline with Tween-80); 93 % of control under setting [4].
Regarding `COc1cccc2c1C(=O)c1c(O)c3c(c(O)c1C2=O)C[C@@](O)(C(=O)CO)C[C@@H]3OC1CC(N(C)C)C(O)C(C)O1` (stereo not given in full), the T/C runs as follows: (endpoint: mean survival time, dose: 0.25 mg/kg/injection, schedule: Q01DX009 (ip), vehicle: saline) 118 % of control and 108 % of control; (endpoint: mean survival time, dose: 0.5 mg/kg/injection, schedule: Q01DX009 (ip), vehicle: saline) 117 % of control and 121 % of control; (endpoint: mean survival time, dose: 1.0 mg/kg/injection, schedule: Q01DX009 (ip), vehicle: saline) 115 % of control and 124 % of control; (endpoint: mean survival time, dose: 2.0 mg/kg/injection, schedule: Q01DX009 (ip), vehicle: saline) 97 % of control and 102 % of control.
For `CN1CCN(CN2C(=O)C3C4C=CC(C3C2=O)C2C3C(=O)N(CN5CCN(C)CC5)C(=O)C3C42)CC1` (stereo not given), the T/C (endpoint: median survival time, dose: 7.2 mg/kg/injection, schedule: Q03HX027 (ip), vehicle: water) is 106 % of control; the T/C (endpoint: median survival time, dose: 8.3 mg/kg/injection, schedule: Q03HX027 (ip), vehicle: water) was 104 % of control; the T/C (endpoint: median survival time, dose: 12.0 mg/kg/injection, schedule: Q03HX027 (ip), vehicle: water) was 114 % of control; the T/C (endpoint: median survival time, dose: 16.1 mg/kg/injection, schedule: Q01DX009 (ip), vehicle: water) was 108 % of control; the T/C (endpoint: median survival time, dose: 24.8 mg/kg/injection, schedule: Q01DX009 (ip), vehicle: water) is 102 % of control and 105 % of control and 109 % of control; the T/C (endpoint: median survival time, dose: 26.8 mg/kg/injection, schedule: Q01DX009 (ip), vehicle: water) was 105 % of control. Besides, the T/C is, setting by setting: (endpoint: median survival time, dose: 33.4 mg/kg/injection, schedule: Q03HX027 (ip), vehicle: water) 172 % of control; (endpoint: median survival time, dose: 38.4 mg/kg/injection, schedule: Q03HX027 (ip), vehicle: water) 114 % of control; (endpoint: median survival time, dose: 41.3 mg/kg/injection, schedule: Q01DX009 (ip), vehicle: water) 124 % of control; (endpoint: median survival time, dose: 44.6 mg/kg/injection, schedule: Q01DX009 (ip), vehicle: water) 152 % of control; (endpoint: median survival time, dose: 55.7 mg/kg/injection, schedule: Q03HX027 (ip), vehicle: water) 103 % of control; (endpoint: median survival time, dose: 68.8 mg/kg/injection, schedule: Q01DX009 (ip), vehicle: water) 178 % of control and 183 % of control and 219 % of control. Moreover, the T/C reads like this: (endpoint: median survival time, dose: 74.4 mg/kg/injection, schedule: Q01DX009 (ip), vehicle: water) 255 % of control; (endpoint: median survival time, dose: 114.7 mg/kg/injection, schedule: Q01DX009 (ip), vehicle: water) 210 % of control and 243 % of control and 103 % of control.
For the molecule `Oc1ccc(Br)cc1/C=N/c1nc(-c2ccccc2)cs1.Oc1ccc(Br)cc1/C=N/c1nc(-c2ccccc2)cs1.[Cu]`, the T/C was 87 % of control (endpoint: mean survival time, dose: 12.5 mg/kg/injection, schedule: Q01DX001 (ip), vehicle: saline); 100 % of control (endpoint: mean survival time, dose: 25.0 mg/kg/injection, schedule: Q01DX001 (ip), vehicle: saline); 91 % of control (endpoint: mean survival time, dose: 50.0 mg/kg/injection, schedule: Q01DX001 (ip), vehicle: saline); 93 % of control (endpoint: mean survival time, dose: 200.0 mg/kg/injection, schedule: Q01DX001 (ip), vehicle: saline with Tween-80).
In the case of `COc1cccc2c1C(CO)N1C(C#N)C3CC(C(=O)O)C(C1C2)N3C` (stereo not given), the T/C was 112 % of control (endpoint: median survival time, dose: 3.12 mg/kg/injection, schedule: Q01DX005 (ip), vehicle: saline); 110 % of control (endpoint: median survival time, dose: 6.25 mg/kg/injection, schedule: Q01DX005 (ip), vehicle: saline); 120 % of control and 111 % of control (endpoint: median survival time, dose: 9.0 mg/kg/injection, schedule: Q01DX005 (ip), vehicle: suspension in saline); 112 % of control (endpoint: median survival time, dose: 12.5 mg/kg/injection, schedule: Q01DX005 (ip), vehicle: saline); 124 % of control (endpoint: median survival time, dose: 15.0 mg/kg/injection, schedule: Q01DX005 (ip), vehicle: suspension in saline); 87 % of control (endpoint: median survival time, dose: 41.67 mg/kg/injection, schedule: Q01DX005 (ip), vehicle: suspension in saline). Also, for the setting “endpoint: median survival time, dose: 50.0 mg/kg/injection, schedule: Q01DX005 (ip), vehicle: saline”, the T/C was 89 % of control.
`COC(=O)CC(=O)C12OC1CC1C3CC=C4CC(OC(C)=O)CCC4(C)C3CCC12C` (stereo not given): the T/C by setting is: (endpoint: mean survival time, dose: 75.0 mg/kg/injection, schedule: Q04DX003 (sc), vehicle: steriod suspending solution) 101 % of control; (endpoint: mean survival time, dose: 150.0 mg/kg/injection, schedule: Q04DX003 (sc), vehicle: steriod suspending solution) 103 % of control; (endpoint: mean survival time, dose: 300.0 mg/kg/injection, schedule: Q04DX003 (sc), vehicle: steriod suspending solution) 97 % of control.
For the molecule `CC(C)C(C)CCC(C)C1CCC2C3CC=C4CC(O)CCC4(C)C3CCC12C` (stereo not given), the T/C runs as follows: (endpoint: mean survival time, dose: 25.0 mg/kg/injection, schedule: Q01DX001 (ip), vehicle: saline with Tween-80) 91 % of control; (endpoint: mean survival time, dose: 50.0 mg/kg/injection, schedule: Q01DX001 (ip), vehicle: saline with Tween-80) 94 % of control; (endpoint: mean survival time, dose: 100.0 mg/kg/injection, schedule: Q01DX001 (ip), vehicle: saline with Tween-80) 97 % of control.
